Measured values taken from ChEMBL document CHEMBL4052660, “The tobacco cembranoid (1S,2E,4S,7E,11E)-2,7,11-cembratriene-4,6-diol as a novel angiogenesis inhibitory lead for the control of breast malignancies” (Bioorg Med Chem, 2017).
Activity calls are given as the source filed them. The calls are words filed in the database; no cut-off is given here.

How the values were obtained:
[1] = test system: Mus musculus; assay: Antiangiogenic activity in matrigel injected Swiss albino mouse assessed as reduction in hemoglobin content in matrigel plug at 2.5 mg/kg, ip every other day for 20 days by matrigel assay; format: functional; design: scale not given: the % may be the effect or the level left
[2] = test system: Serum; assay: Drug metabolism in athymic nude mouse serum assessed as monohydroxylated metabolite formation at 40 mg/kg, ip after 2 hrs by ES-MS analysis; format: ADME, organism-based; settings: in vivo
[3] = biological target: Vascular endothelial growth factor receptor 2 (Homo sapiens) (UniProt P35968); assay: Inhibition of VEGFR2 phosphorylation in human MDA-MB-231 cells at 20 uM by Western blot analysis; format: cell-based
[4] = biological target: Vascular endothelial growth factor receptor 2 (Homo sapiens) (UniProt P35968); assay: Inhibition of VEGFR2 in human BT474 cells assessed as downregulation of phosphorylated FAK levels at 20 uM by Western blot analysis; format: cell-based
[5] = biological target: Vascular endothelial growth factor receptor 2 (Homo sapiens) (UniProt P35968); assay: Inhibition of VEGFR2 in human BT474 cells assessed as downregulation of phosphorylated FAK levels at 50 uM by Western blot analysis; format: cell-based
[6] = biological target: Vascular endothelial growth factor receptor 2 (Homo sapiens) (UniProt P35968); assay: Inhibition of VEGFR2 in human BT474 cells assessed as reduction in PI3K phosphorylation at 20 to 50 uM by Western blot analysis; format: cell-based
[7] = biological target: Vascular endothelial growth factor receptor 2 (Homo sapiens) (UniProt P35968); assay: Inhibition of VEGFR2 in human MDA-MB-231 cells assessed as reduction in Akt phosphorylation at 20 to 50 uM by Western blot analysis; format: cell-based
[8] = test system: Serum; assay: Drug uptake in athymic nude mouse serum at 40 mg/kg, ip after 2 hrs by ES-MS analysis; format: ADME, organism-based; settings: in vivo
[9] = biological target: Vascular endothelial growth factor receptor 2 (Homo sapiens) (UniProt P35968); assay: Inhibition of VEGFR2 in human BT474 cells assessed as downregulation of phosphorylated paxillin levels at 20 uM by Western blot analysis; format: cell-based
[10] = biological target: Vascular endothelial growth factor receptor 2 (Homo sapiens) (UniProt P35968); assay: Inhibition of VEGFR2 phosphorylation in human BT474 cells at 50 uM by Western blot analysis; format: cell-based
[11] = biological target: Vascular endothelial growth factor receptor 2 (Homo sapiens) (UniProt P35968); assay: Inhibition of VEGFR2 in human BT474 cells assessed as reduction in Akt phosphorylation at 20 to 50 uM by Western blot analysis; format: cell-based
[12] = biological target: Vascular endothelial growth factor receptor 2 (Homo sapiens) (UniProt P35968); assay: Inhibition of VEGFR2 phosphorylation in human BT474 cells at 20 uM by Western blot analysis; format: cell-based
[13] = biological target: Vascular endothelial growth factor receptor 2 (Homo sapiens) (UniProt P35968); assay: Inhibition of VEGFR2 in human MDA-MB-231 cells assessed as downregulation of phosphorylated paxillin levels at 50 uM by Western blot analysis; format: cell-based
[14] = biological target: Vascular endothelial growth factor receptor 2 (Homo sapiens) (UniProt P35968); assay: Inhibition of VEGFR2 phosphorylation in human MDA-MB-231 cells at 50 uM by Western blot analysis; format: cell-based
[15] = biological target: Vascular endothelial growth factor receptor 2 (Homo sapiens) (UniProt P35968); assay: Inhibition of VEGFR2 in human MDA-MB-231 cells assessed as downregulation of phosphorylated FAK levels at 50 uM by Western blot analysis; format: cell-based
[16] = test system: Serum; assay: Drug metabolism in athymic nude mouse serum assessed as dihydroxylated metabolite formation at 40 mg/kg, ip after 2 hrs by ES-MS analysis; format: ADME, organism-based; settings: in vivo
[17] = biological target: Vascular endothelial growth factor receptor 2 (Homo sapiens) (UniProt P35968); assay: Inhibition of VEGFR2 in human MDA-MB-231 cells assessed as reduction in PI3K phosphorylation at 20 to 50 uM by Western blot analysis; format: cell-based
[18] = biological target: Vascular endothelial growth factor receptor 2 (Homo sapiens) (UniProt P35968); assay: Inhibition of VEGFR2 in human BT474 cells assessed as downregulation of phosphorylated paxillin levels at 50 uM by Western blot analysis; format: cell-based
[19] = biological target: Vascular endothelial growth factor receptor 2 (Homo sapiens) (UniProt P35968); assay: Inhibition of VEGFR2 in human MDA-MB-231 cells assessed as downregulation of phosphorylated paxillin levels at 20 uM by Western blot analysis; format: cell-based
[20] = biological target: Vascular endothelial growth factor receptor 2 (Homo sapiens) (UniProt P35968); assay: Inhibition of VEGFR2 in human MDA-MB-231 cells assessed as downregulation of phosphorylated FAK levels at 20 uM by Western blot analysis; format: cell-based

Sequence of Vascular endothelial growth factor receptor 2 (Homo sapiens) (P35968 whole entry): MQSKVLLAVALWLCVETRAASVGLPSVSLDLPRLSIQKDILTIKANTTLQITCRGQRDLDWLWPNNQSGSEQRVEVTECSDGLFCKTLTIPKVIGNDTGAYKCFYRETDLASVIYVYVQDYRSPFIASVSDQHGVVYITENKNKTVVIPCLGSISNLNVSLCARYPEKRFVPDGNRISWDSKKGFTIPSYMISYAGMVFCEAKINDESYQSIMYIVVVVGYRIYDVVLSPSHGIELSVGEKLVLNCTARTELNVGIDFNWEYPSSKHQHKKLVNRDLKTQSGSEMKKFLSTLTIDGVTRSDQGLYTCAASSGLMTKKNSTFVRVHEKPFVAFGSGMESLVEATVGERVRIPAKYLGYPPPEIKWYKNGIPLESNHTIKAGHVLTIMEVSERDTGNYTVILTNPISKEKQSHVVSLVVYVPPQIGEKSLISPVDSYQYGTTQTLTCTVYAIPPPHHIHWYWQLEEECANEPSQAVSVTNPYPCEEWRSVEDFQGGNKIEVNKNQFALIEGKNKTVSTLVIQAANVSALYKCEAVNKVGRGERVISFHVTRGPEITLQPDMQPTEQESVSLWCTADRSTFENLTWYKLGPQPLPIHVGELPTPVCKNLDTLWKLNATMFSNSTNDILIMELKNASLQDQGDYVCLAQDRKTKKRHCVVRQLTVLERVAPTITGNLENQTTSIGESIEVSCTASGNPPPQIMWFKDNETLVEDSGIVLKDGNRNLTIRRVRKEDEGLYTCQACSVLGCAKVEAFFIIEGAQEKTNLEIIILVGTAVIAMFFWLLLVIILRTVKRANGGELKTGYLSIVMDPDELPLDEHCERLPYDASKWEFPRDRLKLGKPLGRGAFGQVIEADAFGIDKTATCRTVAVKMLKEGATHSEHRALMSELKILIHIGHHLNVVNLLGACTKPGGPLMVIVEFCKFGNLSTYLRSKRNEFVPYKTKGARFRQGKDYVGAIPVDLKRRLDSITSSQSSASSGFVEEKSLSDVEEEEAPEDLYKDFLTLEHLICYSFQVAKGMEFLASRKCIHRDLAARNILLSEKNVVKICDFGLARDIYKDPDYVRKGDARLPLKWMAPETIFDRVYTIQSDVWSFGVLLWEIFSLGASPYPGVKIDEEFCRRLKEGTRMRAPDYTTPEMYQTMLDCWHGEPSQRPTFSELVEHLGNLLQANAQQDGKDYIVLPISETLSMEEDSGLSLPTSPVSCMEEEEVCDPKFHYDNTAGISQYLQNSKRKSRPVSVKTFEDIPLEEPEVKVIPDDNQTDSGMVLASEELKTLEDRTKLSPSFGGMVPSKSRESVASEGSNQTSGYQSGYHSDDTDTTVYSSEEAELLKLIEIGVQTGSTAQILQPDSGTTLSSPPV

| Drug metabolism [2] | inhibition [3] [%] | inhibition [4] [%] | inhibition [5] [%] | inhibition [6] | inhibition [7] | Drug uptake [8] | inhibition [9] [%] | inhibition [10] [%] | inhibition [11] | inhibition [12] [%] | inhibition [13] [%] | inhibition [14] [%] | inhibition [15] [%] | Drug metabolism [16] | inhibition [17] | inhibition [18] [%] | inhibition [19] [%] | inhibition [20] [%] | Compound | Activity [1] [%] |
| --- | --- | --- | --- | --- | --- | --- | --- | --- | --- | --- | --- | --- | --- | --- | --- | --- | --- | --- | --- | --- |
|  |  |  |  |  |  |  |  |  |  |  |  |  |  |  |  |  |  |  | CCN(CC)CCNC(=O)c1c(C)[nH]c(/C=C2\C(=O)Nc3ccc(F)cc32)c1C [SUNITINIB] | 80 |
| Metabolite_Detected | 60.6 | 48.9 | 74.8 | inactive | inactive | Active | 70.9 | 58.6 | inactive | 43.1 | 96.1 | 65.3 | 41.3 | Metabolite_Detected | inactive | 82.1 | 58.7 | 26 | C/C1=C\[C@H](O)C[C@](C)(O)/C=C/[C@H](C(C)C)CC/C(C)=C/CC1 |  |
